Entries after “also recorded” stand apart in the source; their conditions may differ. No end group written: not given here.
Experiments:
[1] = tested on: MDA-MB-435 tumor lymphatic vasculature; experiment: Localization in 435 tumors after tail vein injection, with blood vessel and lymphatic marker staining; type: in vivo, nude mice
Experimental: Localization of phage displaying SEQ ID NO: 1 was analyzed with anti-T7 phage antibody following intravenous injection of CGNKRTRGC (SEQ ID NO: 1)-displaying phage into the tail vein of nude mice carrying an MDA-MB-435 tumor. […] Similar results were obtained by a phage overlay assay in which phage were added onto frozen tissue sections, rather than being injected into the mice.
An anti-T7 antiserum was prepared by immunizing New Zealand white rabbits with 10^10 pfu of T7 nonrecombinant phage (Novagen). The initial immunization performed in complete Freund's Adjuvant, while boosters were administered in incomplete Freund's Adjuvant. The antibody titer was estimated by ELISA, and the antiserum was absorbed against BLT5615 bacterial and mouse liver lysates. Phage were detected using anti-T7 phage antiserum (1:1000 dilution) and goat anti-rabbit secondary antibody conjugated to fluorescein.
(§1) Detection of fluorescent peptides and biotin-conjugated tomato lectin was performed as follows. Fluorescein-conjugated peptide CGNKRTRGC (SEQ ID NO: 1) was prepared as described above. The peptide (100 μg in 200 μl of PBS) was injected into the tail vein of mice bearing MDA-MB-435 breast carcinoma tumors. After 10 minutes, biotin-conjugated lycopersicon esculentum (tomato) lectin (100 μg in 200 μl of PBS; Vector; Burlingame, Calif.) was also injected into the tail vein. After 5 minutes, the mouse was perfused through the heart with 4% paraformaldehyde. Tissues were removed and frozen in O.C.T. embedding medium (Tissue-Tek; Torrence, Calif.). Blood vessels were visualized by detecting the tomato lectin with streptavidin-conjugated Alexa 594 (Molecular Probes; Eugene, Oreg.). Green staining indicated the presence of peptide SEQ ID NO: 1, while red staining indicated the presence of tomato lectin.
MDA-MB-435 breast carcinoma tumors contain lymphatic vessels that are positive for markers of lymphatic endothelial cells. To determine whether CGNKRTRGC (SEQ ID NO: 1) homed to the 435 tumor lymphatics, tumor sections were stained with the lymphatic markers VEGFR-3 and LYVE-1. Lymphatic vessels were visualized using a rat anti-mouse VEGFR-3 antibody or with rabbit anti-LYVE-1 antibody produced as described below.
LYVE-1 antibody was produced by immunizing New Zealand White rabbits with a peptide encoding the 19 most C-terminal residues of mouse LYVE-1 (Prevo et al., J. Biol. Chem. 276:19420 (2001)) conjugated to keyhole limpet hemocyanin (KLH; Pierce; Iselin, N.J.). The initial immunization was done in complete Freund's Adjuvant, with boosters performed in incomplete Freund's Adjuvant. Specific antibody was obtained following affinity purification with the peptide coupled to Sulfolink Gel (Pierce). Tissues were processed for fifteen minutes following injection with fluorescein-conjugated peptide using rat anti-mouse anti-VEGFR-3, and rabbit anti-LYVE-1. The anti-LYVE-1 antibody was used at a 1:500 dilution on cryo sections, followed by detection with goat anti-rabbit secondary antibody conjugated to Alexa 594 (Molecular Probes).

[2] = tested on: MDA-MB-435 human breast carcinoma cell xenografts; experiment: Tumor treatment study; type: in vivo, nude mice; settings: 67 nmol intravenously twice a week; after about two weeks of treatment; FIG. 8; listed as peptide SEQ ID NO: 1
Experimental: A tumor treatment study was performed using MDA-MB-435 human breast carcinoma cell xenografts prepared by subcutaneously injecting 1×10^6 cells in 200 μl PBS into nude mice. Mice (five per group) were treated intravenously twice a week with 67 nmol CGNKRTRGC peptide (SEQ ID NO: 1) or with PBS starting four weeks after tumor implantation. Tumor volumes were measured once a week for four weeks.

[3] = tested on: primary MDA-MB-435 breast carcinoma tumor cell suspensions; experiment: Ex vivo phage binding to primary 435 tumor cell suspensions; set-up: species or system human; settings: synthetic peptide added
Experimental: Selected phage were enriched 30-fold relative to nonrecombinant T7 phage in the tumor. Forty-eight individual clones were randomly chosen from the in vivo selected pool, and the inserts sequenced as described below. Individual clones were assayed for the ability to bind cultured 435 cells as well as cell suspensions prepared from 435 tumors.
Xenografts, tumor cell suspensions and ex vivo selections were performed essentially as follows. Nude Balb/c mice were subcutaneously injected with 1×10^6 MDA-MB-435 tumor cells to generate breast carcinoma xenografts. Human MDA-MB-435 breast carcinoma xenograft tumors were harvested 9 to 12 weeks after implantation, and tumor cell suspensions prepared using collagenase (0.5 mg/ml, Sigma).
The suspension was subjected to serial washes with 1% BSA in DME to remove unbound phage. Blood vessel endothelial cells were depleted from the tumor cell mixture using magnetic beads (Dynal; Lake Success, N.Y.) coated with anti-mouse CD31 antibody (MEC 13.3; Pharminogen; San Diego, Calif.) according to the manufacturer's instructions. Phage bound to the CD31-negative cell population were rescued by adding bacteria, and the rescued phage titered and amplified in liquid culture.

[4] = tested on: Cultured MDA-MB-435 cells; experiment: Trypan blue cytotoxicity in cultured MDA-MB-435 cells; type: cell-based; settings: FIG. 7
Experimental: Cultured MDA-MB-435 cells were incubated with a control peptide (CGEKRTRGC; SEQ ID NO: 3) or with CGNKRTRGC (SEQ ID NO: 1) at 37° C. for 1, 2 or 4 hours. After staining with trypan blue, which is taken up by cells that are dead or dying, the total number of cells were counted, and the percentage of trypan blue stained cells determined. […] In particular, after four hours incubation, at least 7-fold greater trypan blue uptake was evident in cell cultures incubated with peptide SEQ ID NO: 1 as compared to cultures incubated with control peptide.

normal tissues = experiment: Localization of fluorescent peptide in normal tissues after intravenous injection; type: in vivo, mouse
Experimental: Several normal tissues also were studied for localization of the CGNKRTRGC (SEQ ID NO: 1) peptide.
as §1

cultured KRIB cells = experiment: Phage binding and peptide internalization in cultured KRIB cells; type: cell-based
[5] = tested on: cultured MDA-MB-435 tumor cells; experiment: Internalization and subcellular localization in cultured MDA-MB-435 cells; type: cell-based, human; settings: one to five hours at 37° C., FIG. 2
Experimental: A fluorescein-conjugated CGNKRTRGC (SEQ ID NO: 1) peptide was utilized to further analyze cellular internalization and subcellular localization. […] Natl. Acad. Sci. 97:13003 (2000). The fluorescein-conjugated peptides were incubated with cultured MDA-MB-435 tumor cells for one to five hours at 37° C. […] Cultured 435 cells also internalized the CGNKRTRGC (SEQ ID NO: 1) phage, although the phage accumulated in the cytoplasm of the cells.

mitochondrial membranes = settings: 10 μM; cited from earlier work

Substance | co-localization with macrophage marker F4/80 ([1]; VEGFR-3 positive single cells in tumor) | localization within 435 tumors after tail vein injection ([1]; mouse, in vivo) | mean tumor volume compared to mice administered PBS alone [2] | inhibition of binding of CGNKRTRGC phage by synthetic peptide [3] | trypan blue uptake relative to cultures incubated with control peptide ([4]; four hours incubation, 37° C.) | cytotoxic effect compared to control peptide SEQ ID NO: 3 ([4]; later time points of 1, 2 or 4 hours, listed as peptide SEQ ID NO: 1) | localization in normal tissues (normal tissues) | co-localization with lymphatic markers VEGFR-3 and LYVE-1 ([1]; 435 tumor tissue, FIG. 5) | internalization and nuclear transport in vivo ([1]; 435 tumor tissue, FIG. 5) | internalization and nuclear transport in vivo ([1]; 435 tumor tissue, FIG. 5, listed as fluorescein-conjugated SEQ ID NO:1) | internalization and nuclear transport in vivo ([1]; 435 tumor tissue, FIG. 5, listed as fluorescein-conjugated peptide (SEQ ID NO: 1)) | co-localization with blood vessels labeled with biotin-conjugated tomato lectin ([1]; FIGS. 3A-C) | blood vessel markers Meca-32 and CD31 on the vessels in which the substance localized ([1]; mouse, in vivo) | internalization of fluorescein-labeled peptide by cultured KRIB cells (cultured KRIB cells) | uptake and subcellular localization of fluorescein-conjugated peptide ([5]; listed as fluorescein-conjugated SEQ ID NO: 1) | uptake and subcellular localization of fluorescein-conjugated peptide ([5]; listed as fluorescein-labeled peptide SEQ ID NO: 1) | mitochondrial swelling (mitochondrial membranes)
CGNKRTRGC [CGNKRTRGC (SEQ ID NO: 1) peptide] | lack of co-localization | accumulated in VEGFR-3 positive single cells within the tumor | at least several fold less; also recorded: slowed significantly | inhibited binding | at least 7 fold | significantly enhanced cytotoxic effect; also recorded: significantly enhanced cytotoxicity | Fluorescence was seen only in the kidney tubuli | – | – | – | – | – | – | – | – | – | –
fluorescein-conjugated CGNKRTRGC (SEQ ID NO: 1) peptide: fluorescein-conjugated CGNKRTRGC peptide (cysteine pairing not given here; also: fluorescein conjugate, site not given here) | – | localized in vessel-like structures and in individual cells within the tumor | – | – | – | – | – | co-localized | internalized and transported into nuclei | internalized and transported into nuclei | accumulated in the nuclei lining the vessel-like structures | notable lack of co-localization | negative | internalized | internalized and translocated to the nucleus | internalized | –
D(KLAKLAK)2 | – | – | – | – | – | – | – | – | – | – | – | – | – | – | – | – | marked mitochondrial swelling

Source: patent US8329859B2, “Peptides that home to tumor lymphatic vasculature and methods of using same” (Sanford-Burnham Medical Research Institute, priority 2001, dated 2012)
